The target of assay [1] is T1, HiBit-BRG1 fusion protein (Homo sapiens, UniProt P51532).
T1 construct: expressed in transfected cells
In words: HiBiT-BRG1 cell-based degradation assay (Nano-Glo HiBiT Lytic Detection, 24 h). To be noted: HeLa cell line expressing HiBit-BRG1 and LgBit; for Dmax: read-out: BRG1 HiBit Degradation Maximum (%); for DC50: read-out: BRMG1 HiBit Degradation IC50. In outline: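 HeLa cells stably expressing HiBiT-BRG1 plus LgBit, 5000/well, treated 24 h, then lysed with Nano-Glo HiBiT lytic reagent and luminescence read. % degradation normalised between DMSO (high control) and 2 μM reference BRM/BRG1 degrader (low control).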
(HiBiT is a short tag that completes a luciferase, so light tracks the accessible tagged protein.)

The target of another assay is T2, HiBit-BRM fusion protein (Homo sapiens, UniProt P51531).
T2 construct: expressed in transfected cells
T2 sequence (P51531 whole entry, the tested form may be a part): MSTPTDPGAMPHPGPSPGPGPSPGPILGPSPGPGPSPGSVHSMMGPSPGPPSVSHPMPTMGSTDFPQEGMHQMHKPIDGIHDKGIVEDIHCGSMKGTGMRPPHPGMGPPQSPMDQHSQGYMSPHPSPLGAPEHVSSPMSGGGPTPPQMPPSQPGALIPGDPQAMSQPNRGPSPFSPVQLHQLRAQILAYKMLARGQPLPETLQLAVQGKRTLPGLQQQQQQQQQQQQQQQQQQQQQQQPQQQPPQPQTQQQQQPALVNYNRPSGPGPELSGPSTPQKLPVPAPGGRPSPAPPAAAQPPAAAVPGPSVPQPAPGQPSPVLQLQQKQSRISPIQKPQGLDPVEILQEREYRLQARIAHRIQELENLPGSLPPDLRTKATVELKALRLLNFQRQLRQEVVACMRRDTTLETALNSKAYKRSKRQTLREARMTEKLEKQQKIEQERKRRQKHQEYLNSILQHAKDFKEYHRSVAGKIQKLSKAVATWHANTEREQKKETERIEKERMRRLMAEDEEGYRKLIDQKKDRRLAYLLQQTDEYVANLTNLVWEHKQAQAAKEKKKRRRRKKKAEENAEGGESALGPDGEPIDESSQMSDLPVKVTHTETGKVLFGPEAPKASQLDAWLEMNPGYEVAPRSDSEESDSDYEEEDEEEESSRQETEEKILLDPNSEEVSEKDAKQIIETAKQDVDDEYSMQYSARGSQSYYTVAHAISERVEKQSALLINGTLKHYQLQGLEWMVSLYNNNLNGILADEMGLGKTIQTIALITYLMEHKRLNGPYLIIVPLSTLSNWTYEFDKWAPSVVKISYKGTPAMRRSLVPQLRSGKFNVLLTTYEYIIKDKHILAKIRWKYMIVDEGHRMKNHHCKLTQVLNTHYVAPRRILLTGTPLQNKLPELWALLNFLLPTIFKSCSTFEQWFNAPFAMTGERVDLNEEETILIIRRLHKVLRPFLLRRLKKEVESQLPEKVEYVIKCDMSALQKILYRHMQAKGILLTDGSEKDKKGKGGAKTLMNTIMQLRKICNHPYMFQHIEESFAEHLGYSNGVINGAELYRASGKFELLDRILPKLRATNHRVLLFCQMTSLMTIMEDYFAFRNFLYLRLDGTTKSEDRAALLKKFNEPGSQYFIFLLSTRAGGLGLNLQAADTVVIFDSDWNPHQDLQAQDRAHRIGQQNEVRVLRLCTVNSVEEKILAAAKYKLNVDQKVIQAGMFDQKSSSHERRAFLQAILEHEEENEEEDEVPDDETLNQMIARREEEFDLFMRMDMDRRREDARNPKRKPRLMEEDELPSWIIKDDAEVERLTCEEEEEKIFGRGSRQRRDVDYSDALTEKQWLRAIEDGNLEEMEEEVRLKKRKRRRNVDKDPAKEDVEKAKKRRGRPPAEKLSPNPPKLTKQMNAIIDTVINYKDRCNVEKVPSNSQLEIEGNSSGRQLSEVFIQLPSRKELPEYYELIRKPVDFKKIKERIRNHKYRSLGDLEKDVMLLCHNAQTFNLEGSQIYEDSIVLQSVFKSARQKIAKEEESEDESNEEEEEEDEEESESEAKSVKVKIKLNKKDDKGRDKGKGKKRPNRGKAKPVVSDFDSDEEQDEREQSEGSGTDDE
Briefly: HiBiT-BRM cell-based degradation assay (Nano-Glo HiBiT Lytic Detection, 24 h). To be noted: HeLa cell line expressing HiBiT-BRM; for DC50: read-out: BRM HiBit Degradation IC50. In outline: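 HeLa cells stably expressing HiBiT-BRM were treated for 24 h with compounds (10-point 3-fold dilutions, 30 μM final top dose, in duplicate). HiBiT was detected by lytic LgBiT complementation luminescence. % degradation was normalized to DMSO (high control) and 2 μM of a reference BRM/BRG1 degrader (low control).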

Usually pIC50 stands for the negative decadic logarithm of the IC50, by convention in mol/L. A high value points to a small IC50.

pIC50: −log10 of the molar value.

T1 sequence (P51532 whole entry, the tested form may be a part): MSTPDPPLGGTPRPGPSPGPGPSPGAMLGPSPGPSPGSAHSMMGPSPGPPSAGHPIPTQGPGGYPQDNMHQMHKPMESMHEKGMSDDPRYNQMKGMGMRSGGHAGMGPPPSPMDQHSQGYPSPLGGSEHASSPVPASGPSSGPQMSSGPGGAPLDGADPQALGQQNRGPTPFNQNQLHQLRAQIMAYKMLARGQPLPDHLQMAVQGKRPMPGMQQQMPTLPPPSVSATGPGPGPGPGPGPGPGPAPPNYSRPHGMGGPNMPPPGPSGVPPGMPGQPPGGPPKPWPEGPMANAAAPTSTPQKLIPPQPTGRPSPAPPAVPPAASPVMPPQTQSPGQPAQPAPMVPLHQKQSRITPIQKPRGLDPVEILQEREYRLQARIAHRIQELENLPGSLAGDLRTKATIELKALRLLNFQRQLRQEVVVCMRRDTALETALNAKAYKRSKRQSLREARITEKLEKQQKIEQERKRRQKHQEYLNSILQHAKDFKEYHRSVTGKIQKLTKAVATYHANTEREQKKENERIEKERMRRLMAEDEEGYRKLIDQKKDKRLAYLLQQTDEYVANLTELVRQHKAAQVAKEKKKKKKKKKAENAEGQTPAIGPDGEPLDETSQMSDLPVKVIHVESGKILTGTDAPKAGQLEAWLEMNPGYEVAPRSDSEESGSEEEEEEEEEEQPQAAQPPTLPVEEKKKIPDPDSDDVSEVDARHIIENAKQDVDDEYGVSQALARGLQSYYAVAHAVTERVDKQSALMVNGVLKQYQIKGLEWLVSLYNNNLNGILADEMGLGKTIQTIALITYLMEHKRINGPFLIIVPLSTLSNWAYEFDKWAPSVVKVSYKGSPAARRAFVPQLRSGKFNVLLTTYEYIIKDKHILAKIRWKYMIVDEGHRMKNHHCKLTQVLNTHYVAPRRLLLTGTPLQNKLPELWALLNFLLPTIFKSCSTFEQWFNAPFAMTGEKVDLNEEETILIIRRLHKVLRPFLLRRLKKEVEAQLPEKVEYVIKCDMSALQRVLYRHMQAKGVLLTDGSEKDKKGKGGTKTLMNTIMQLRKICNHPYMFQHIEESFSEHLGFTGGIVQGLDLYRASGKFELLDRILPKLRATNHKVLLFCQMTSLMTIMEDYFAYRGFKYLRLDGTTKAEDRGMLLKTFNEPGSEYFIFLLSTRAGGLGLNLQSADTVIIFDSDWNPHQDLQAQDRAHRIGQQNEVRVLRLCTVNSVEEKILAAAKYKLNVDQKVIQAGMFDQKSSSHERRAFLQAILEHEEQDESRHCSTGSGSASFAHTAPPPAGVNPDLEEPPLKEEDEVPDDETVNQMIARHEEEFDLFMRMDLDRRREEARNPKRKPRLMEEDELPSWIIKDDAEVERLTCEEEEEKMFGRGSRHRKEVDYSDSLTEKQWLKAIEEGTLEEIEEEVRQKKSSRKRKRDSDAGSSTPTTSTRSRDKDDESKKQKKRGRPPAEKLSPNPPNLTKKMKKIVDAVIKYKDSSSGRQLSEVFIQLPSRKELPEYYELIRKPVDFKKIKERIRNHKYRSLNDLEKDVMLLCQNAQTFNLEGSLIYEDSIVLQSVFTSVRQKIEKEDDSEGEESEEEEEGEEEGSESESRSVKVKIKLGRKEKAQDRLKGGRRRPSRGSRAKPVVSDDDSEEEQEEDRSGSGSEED

`Cc1ncsc1-c1ccc([C@H](C)NC(=O)[C@@H]2C[C@@H](O)CN2C(=O)[C@@H](c2cc(OCCN3C[C@H]4C[C@@H](c5c(C)[nH]c6nnc(-c7ccccc7O)cc56)C[C@H]4C3)no2)C(C)C)cc1` [Compound 109, (2S,4R)-4-hydroxy-1-((R)-2-(3-(2-((3aR,5R,6aS)-5-(3-(2-hydroxyphenyl)-6-methyl-7H-pyrrolo [2,3-c]pyridazin-5-yl)hexahydrocyclopenta[c]pyrrol-2(1H)-yl)ethoxy)isoxazol-5-yl)-3-methylbutanoyl)-N-((S)-1-(4-(4-methylthiazol-5-yl)phenyl)ethyl)pyrrolidine-2-carboxamide]: in assay [1], the “BRG1 HiBit Degradation Maximum (%)” value was “C (“C” indicates maximum degradation < 50%)”. For the same compound, at HiBit-BRM fusion protein, the “BRM HiBit Degradation Maximum (%)” value is “A (“A” indicates maximum degradation ≥ 75%)” and the negative logarithm of the IC50 (pIC50) is under 8.00.
For the compound `Cc1ncsc1-c1ccc([C@H](C)NC(=O)[C@@H]2C[C@@H](O)CN2C(=O)[C@@H](c2cc(C3CCN(C(=O)[C@H]4C[C@@]5(Cc6cc(-c7ccccc7O)nnc6N5)C4)CC3)no2)C(C)C)cc1` (racemic) [Compound 69, (2S,4R)-4-hydroxy-1-((R)-2-(3-(1-((1R,3s)-3′-(2-hydroxyphenyl)-5′,7′-dihydrospiro[cyclobutane-1,6′-pyrrolo[2,3-c]pyridazine]-3-carbonyl)piperidin-4-yl)isoxazol-5-yl)-3-methylbutanoyl)-N-((S)-1-(4-(4-methylthiazol-5-yl)phenyl)ethyl)pyrrolidine-2-carboxamide], the Dmax in assay [1] is under 50%. Also, at HiBit-BRM fusion protein, the “BRM HiBit Degradation Maximum (%)” value is recorded as “A (“A” indicates maximum degradation ≥ 75%)” and the DC50 was over 10 nM.
As to `Cc1ncsc1-c1ccc(CNC(=O)[C@@H]2C[C@@H](O)CN2C(=O)[C@H](c2cc(OCCN3CC(c4cc5cc(-c6ccccc6O)nnc5[nH]4)C3)no2)C(C)C)cc1` (single isomer, unassigned) [Compound 207], in assay [1], the Dmax is under 50%. Besides, the “BRM HiBit Degradation Maximum (%)” value at HiBit-BRM fusion protein is “C (“C” indicates maximum degradation < 50%)”.
`Cc1ncsc1-c1ccc([C@H](C)NC(=O)[C@@H]2C[C@@H](O)CN2C(=O)[C@@H](c2cc(OCCN3CCC(c4c(C)[nH]c5nnc(-c6ccccc6O)cc45)CC3)no2)C(C)C)cc1` (racemic) [Compound 265, (2S,4R)-4-hydroxy-1-[(2R)-2-[3-(2-{4-[3-(2-hydroxyphenyl)-6-methyl-7H-pyrrolo[2,3-c]pyridazin-5-yl]piperidin-1-yl}ethoxy)-1,2-oxazol-5-yl]-3-methylbutanoyl]-N-[(1S)-1-[4-(4-methyl-1,3-thiazol-5-yl)phenyl]ethyl]pyrrolidine-2-carboxamide]: the Dmax in assay [1] is under 50%. Further, on HiBit-BRM fusion protein, the “BRM HiBit Degradation Maximum (%)” value is given as “A (“A” indicates maximum degradation ≥ 75%)” and the DC50 is over 100 nM.
Take `Cc1ncsc1-c1ccc([C@H](C)NC(=O)[C@@H]2C[C@@H](O)CN2C(=O)[C@@H](c2cc(OCCN3CC4(CC(c5c[nH]c6nnc(-c7ccccc7O)cc56)C4)C3)no2)C(C)C)cc1` (racemic) [Compound 304, (2S,4R)-4-hydroxy-1-((R)-2-(3-(2-(6-(3-(2-hydroxyphenyl)-7H-pyrrolo[2,3-c]pyridazin-5-yl)-2-azaspiro[3.3]heptan-2-yl)ethoxy)isoxazol-5-yl)-3-methylbutanoyl)-N-((S)-1-(4-(4-methylthiazol-5-yl)phenyl)ethyl)pyrrolidine-2-carboxamide]: in assay [1], the Dmax was over 75% and the DC50 is over 100 nM. On HiBit-BRM fusion protein, the “BRM HiBit Degradation Maximum (%)” value is listed as “A (“A” indicates maximum degradation ≥ 75%)” and the DC50 was over 10 nM.
As to `Cc1ncsc1-c1ccc(C(C)NC(=O)C2CC(O)CN2C(=O)C(c2cc(OCCN3CC4C(C3)C4c3cc4cc(-c5cc(F)cc(F)c5O)nnc4[nH]3)no2)C(C)C)cc1` [Compound 141, (2S,4R)-1-((R)-2-(3-(2-((1R,5S,6R)-6-(3-(3,5-difluoro-2-hydroxyphenyl)-7H-pyrrolo[2,3-c]pyridazin-6-yl)-3-azabicyclo[3.1.0]hexan-3-yl)ethoxy)isoxazol-5-yl)-3-methylbutanoyl)-4-hydroxy-N-((S)-1-(4-(4-methylthiazol-5-yl)phenyl)ethyl)pyrrolidine-2-carboxamide], in assay [1], the Dmax is under 50%. Besides, on HiBit-BRM fusion protein, the “BRM HiBit Degradation Maximum (%)” value is “A (“A” indicates maximum degradation ≥ 75%)” and the DC50 is over 10 nM.
Turning to `O=C1CCC(N2C(=O)c3cccc(NCCCCCCCCCCC(=O)N4CC(c5cc6cc(-c7ccccc7O)nnc6[nH]5)C4)c3C2=O)C(=O)N1` (centres unmarked) [Compound 28, 2-(2,6-dioxopiperidin-3-yl)-4-((11-(3-(3-(2-hydroxyphenyl)-7H-pyrrolo[2,3-c]pyridazin-6-yl)azetidin-1-yl)-11-oxoundecyl)amino)isoindoline-1,3-dione], the Dmax in assay [1] is under 50%. Besides, at HiBit-BRM fusion protein, the “BRM HiBit Degradation Maximum (%)” value was “C (“C” indicates maximum degradation < 50%)”.
As for `Cc1ncsc1-c1ccc([C@H](C)NC(=O)[C@@H]2C[C@@H](O)CN2C(=O)[C@@H](c2cc(OCCN3CC[C@H](c4cc5cc(-c6ccccc6O)nnc5[nH]4)C3)no2)C(C)C)cc1` (racemic) [Compound 280, (2S,4R)-4-hydroxy-1-((R)-2-(3-(2-((S)-3-(3-(2-hydroxyphenyl)-7H-pyrrolo[2,3-c]pyridazin-6-yl)pyrrolidin-1-yl)ethoxy)isoxazol-5-yl)-3-methylbutanoyl)-N-((S)-1-(4-(4-methylthiazol-5-yl)phenyl)ethyl)pyrrolidine-2-carboxamide], the Dmax in assay [1] is under 50%. Further, on HiBit-BRM fusion protein, the “BRM HiBit Degradation Maximum (%)” value is recorded as “A (“A” indicates maximum degradation ≥ 75%)” and the DC50 was over 10 nM.
Turning to `Cc1ncsc1-c1ccc(C(C)NC(=O)C2CC(O)CN2C(=O)C(c2cc(OCCN3CC4C(C3)C4c3c(C)[nH]c4nnc(-c5ccccc5O)cc34)no2)C(C)C)cc1` [Compound 255, (2S,4R)-4-hydroxy-1-((R)-2-(3-(2-((1R,5S,6S)-6-(3-(2-hydroxyphenyl)-6-methyl-7H-pyrrolo[2,3-c]pyridazin-5-yl)-3-azabicyclo[3.1.0]hexan-3-yl)ethoxy)isoxazol-5-yl)-3-methylbutanoyl)-N-((S)-1-(4-(4-methylthiazol-5-yl)phenyl)ethyl)pyrrolidine-2-carboxamide], in assay [1], the Dmax is under 50% and the DC50 was over 1000 nM. In addition, on HiBit-BRM fusion protein, the “BRM HiBit Degradation Maximum (%)” value was “A (“A” indicates maximum degradation ≥ 75%)” and the DC50 is over 10 nM.
For `Cc1ncsc1-c1ccc([C@H](C)NC(=O)[C@@H]2C[C@@H](O)CN2C(=O)[C@@H](c2cc(OCCCN3CC4(CC(c5c[nH]c6nnc(-c7ccccc7O)cc56)C4)C3)no2)C(C)C)cc1` (racemic) [Compound 211, (2S,4R)-4-hydroxy-1-((R)-2-(3-(3-(6-(3-(2-hydroxyphenyl)-7H-pyrrolo[2,3-c]pyridazin-5-yl)-2-azaspiro[3.3]heptan-2-yl)propoxy)isoxazol-5-yl)-3-methylbutanoyl)-N-((S)-1-(4-(4-methylthiazol-5-yl)phenyl)ethyl)pyrrolidine-2-carboxamide], in that order: over 75%, over 100 nM, “A (“A” indicates maximum degradation ≥ 75%)” and over 10 nM.
In the case of `Cc1ncsc1-c1ccc([C@H](C)NC(=O)[C@@H]2C[C@@H](O)CN2C(=O)[C@@H](c2cc(OCCN(C)Cc3ccc(Cc4cc5cc(-c6ccccc6O)nnc5[nH]4)cc3)no2)C(C)C)cc1` (racemic) [Compound 284], in assay [1], the Dmax was over 75% and the DC50 is over 100 nM. On HiBit-BRM fusion protein, the “BRM HiBit Degradation Maximum (%)” value is recorded as “A (“A” indicates maximum degradation ≥ 75%)” and the DC50 was over 10 nM.

These data come from patent publication US20240024488A1, “COMPOUNDS AND USES THEREOF” (Foghorn Therapeutics Inc., priority 2020, published 2024).
